From patent publication US12121521B2, “Uses of salt-inducible kinase (SIK) inhibitors for treating osteoporosis” (The General Hospital Corporation, priority 2016, dated 2024)

Experiments:
Experiment in all cases: ScanEDGE kinase panel (DiscoverX)
Assay type in all cases: binding
Conditions in all cases: read-out: % of control activity at 71 nM
ABL1 = target: T1, ABL1 (Homo sapiens, UniProt P00519)
T1 construct: T7 phage fusion (most kinases) or DNA tag for qPCR (HEK-293-made kinases); purchased DiscoverX (Fremont, CA); host or cells: E. coli BL21-derived host (T7 phage) or HEK-293
Method: (§1) ScanEDGE kinase assays paneling specificity across a panel of 96 representative kinases were performed by DiscoverX (Fremont, CA). For most assays, kinase-tagged T7 phage strains were grown in parallel in 24-well blocks in an E. coli host derived from the BL21 strain. Bacteria were grown to log phase and infected with T7 phage from frozen stock (MOI=0.4) and incubated with shaking at 32° C. until lysis (90-150 minutes). The lysates were centrifuged (6000×g) and filtered (0.2 μm) to remove cell debris. The remaining kinases were produced in HEK-293 cells and subsequently tagged with DNA for qPCR detection. […] The liganded beads were blocked with excess biotin and washing with blocking buffer (SeaBlock (Pierce), 1% BSA, 0.05% Tween 20, 1 mM DTT) to remove unbound ligand and to reduce non-specific phage binding. […] Test compounds were prepared as 40× stocks in 100% DMSO and directly diluted into the assay. All reactions were performed in polypropylene 384 well plates in a final volume of 40 μl. […] The kinase concentration in the eluates was measured by qPCR.

AXL = target: T2, AXL (Homo sapiens, UniProt P30530)
T2 construct: T7 phage fusion (most kinases) or DNA tag for qPCR (HEK-293-made kinases); purchased DiscoverX (Fremont, CA); host or cells: E. coli BL21-derived host (T7 phage) or HEK-293
Method: as §1

BMPR2 = target: T3, BMPR2 (Homo sapiens, UniProt Q13873)
T3 construct: T7 phage fusion (most kinases) or DNA tag for qPCR (HEK-293-made kinases); purchased DiscoverX (Fremont, CA); host or cells: E. coli BL21-derived host (T7 phage) or HEK-293
Method: as §1

BTK = target: T4, BTK (Homo sapiens, UniProt Q06187)
T4 construct: T7 phage fusion (most kinases) or DNA tag for qPCR (HEK-293-made kinases); purchased DiscoverX (Fremont, CA); host or cells: E. coli BL21-derived host (T7 phage) or HEK-293
Method: as §1

CDK3 = target: T5, CDK3 (Homo sapiens, UniProt Q00526)
T5 construct: T7 phage fusion (most kinases) or DNA tag for qPCR (HEK-293-made kinases); purchased DiscoverX (Fremont, CA); host or cells: E. coli BL21-derived host (T7 phage) or HEK-293
T5 sequence (Q00526 whole entry, the tested form may be a part): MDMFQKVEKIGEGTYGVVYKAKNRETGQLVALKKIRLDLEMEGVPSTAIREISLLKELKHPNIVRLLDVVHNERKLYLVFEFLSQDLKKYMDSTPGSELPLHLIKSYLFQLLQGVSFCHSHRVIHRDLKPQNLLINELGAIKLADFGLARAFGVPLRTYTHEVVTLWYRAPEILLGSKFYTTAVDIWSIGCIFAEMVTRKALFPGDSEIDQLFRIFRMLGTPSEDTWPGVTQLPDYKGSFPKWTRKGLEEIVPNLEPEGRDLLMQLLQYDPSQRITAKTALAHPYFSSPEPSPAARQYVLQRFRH
Method: as §1

EGFR = target: T6, EGFR (Homo sapiens, UniProt P00533)
T6 construct: T7 phage fusion (most kinases) or DNA tag for qPCR (HEK-293-made kinases); purchased DiscoverX (Fremont, CA); host or cells: E. coli BL21-derived host (T7 phage) or HEK-293
Method: as §1

EPHA2 = target: T7, EPHA2 (Homo sapiens, UniProt P29317)
T7 construct: T7 phage fusion (most kinases) or DNA tag for qPCR (HEK-293-made kinases); purchased DiscoverX; host or cells: E. coli BL21-derived host (T7 phage) or HEK-293
Method: as §1

ERBB2 = target: T8, ERBB2 (Homo sapiens, UniProt P04626)
T8 construct: T7 phage fusion (most kinases) or DNA tag for qPCR (HEK-293-made kinases); purchased DiscoverX; host or cells: E. coli BL21-derived host (T7 phage) or HEK-293
Method: as §1

ERK1 = target: T9, ERK1 (Homo sapiens, UniProt P27361)
T9 construct: T7 phage fusion (most kinases) or DNA tag for qPCR (HEK-293-made kinases); purchased DiscoverX; host or cells: E. coli BL21-derived host (T7 phage) or HEK-293
T9 sequence (P27361 whole entry, the tested form may be a part): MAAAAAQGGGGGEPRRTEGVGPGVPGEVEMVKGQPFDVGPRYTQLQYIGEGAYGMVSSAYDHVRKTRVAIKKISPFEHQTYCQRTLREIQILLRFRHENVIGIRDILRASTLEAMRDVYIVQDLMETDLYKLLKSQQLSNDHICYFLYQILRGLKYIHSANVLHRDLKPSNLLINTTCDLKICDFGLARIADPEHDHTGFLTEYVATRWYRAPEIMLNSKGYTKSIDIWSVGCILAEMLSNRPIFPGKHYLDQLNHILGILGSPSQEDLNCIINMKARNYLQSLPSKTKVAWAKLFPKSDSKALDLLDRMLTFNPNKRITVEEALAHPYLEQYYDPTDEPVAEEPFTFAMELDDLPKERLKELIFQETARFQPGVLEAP
Method: as §1

FGFR3 = target: T10, FGFR3 (Homo sapiens, UniProt P22607)
T10 construct: T7 phage fusion (most kinases) or DNA tag for qPCR (HEK-293-made kinases); purchased DiscoverX; host or cells: E. coli BL21-derived host (T7 phage) or HEK-293
Method: as §1

FLT3 = target: T11, FLT3 (Homo sapiens, UniProt P36888)
T11 construct: T7 phage fusion (most kinases) or DNA tag for qPCR (HEK-293-made kinases); purchased DiscoverX; host or cells: E. coli BL21-derived host (T7 phage) or HEK-293
Method: as §1

GSK3B = target: T12, GSK3B (Homo sapiens, UniProt P49841)
T12 construct: T7 phage fusion (most kinases) or DNA tag for qPCR (HEK-293-made kinases); purchased DiscoverX; host or cells: E. coli BL21-derived host (T7 phage) or HEK-293
T12 sequence (P49841 whole entry, the tested form may be a part): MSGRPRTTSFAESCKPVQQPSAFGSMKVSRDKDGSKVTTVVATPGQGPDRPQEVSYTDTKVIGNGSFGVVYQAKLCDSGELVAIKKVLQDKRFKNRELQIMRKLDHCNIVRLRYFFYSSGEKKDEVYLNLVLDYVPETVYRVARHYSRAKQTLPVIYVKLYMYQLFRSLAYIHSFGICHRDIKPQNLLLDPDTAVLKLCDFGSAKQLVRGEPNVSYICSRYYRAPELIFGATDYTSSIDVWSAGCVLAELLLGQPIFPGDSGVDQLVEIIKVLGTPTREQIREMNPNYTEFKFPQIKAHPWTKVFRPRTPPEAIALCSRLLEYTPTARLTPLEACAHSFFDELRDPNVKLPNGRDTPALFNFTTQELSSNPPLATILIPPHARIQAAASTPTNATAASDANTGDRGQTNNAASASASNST
Method: as §1

HIPK2 = target: T13, HIPK2 (Homo sapiens, UniProt Q9H2X6)
T13 construct: T7 phage fusion (most kinases) or DNA tag for qPCR (HEK-293-made kinases); purchased DiscoverX; host or cells: E. coli BL21-derived host (T7 phage) or HEK-293
Method: as §1

IKK-alpha = target: T14, IKK-alpha (Homo sapiens, UniProt O15111)
T14 construct: T7 phage fusion (most kinases) or DNA tag for qPCR (HEK-293-made kinases); purchased DiscoverX; host or cells: E. coli BL21-derived host (T7 phage) or HEK-293
T14 sequence (O15111 whole entry, the tested form may be a part): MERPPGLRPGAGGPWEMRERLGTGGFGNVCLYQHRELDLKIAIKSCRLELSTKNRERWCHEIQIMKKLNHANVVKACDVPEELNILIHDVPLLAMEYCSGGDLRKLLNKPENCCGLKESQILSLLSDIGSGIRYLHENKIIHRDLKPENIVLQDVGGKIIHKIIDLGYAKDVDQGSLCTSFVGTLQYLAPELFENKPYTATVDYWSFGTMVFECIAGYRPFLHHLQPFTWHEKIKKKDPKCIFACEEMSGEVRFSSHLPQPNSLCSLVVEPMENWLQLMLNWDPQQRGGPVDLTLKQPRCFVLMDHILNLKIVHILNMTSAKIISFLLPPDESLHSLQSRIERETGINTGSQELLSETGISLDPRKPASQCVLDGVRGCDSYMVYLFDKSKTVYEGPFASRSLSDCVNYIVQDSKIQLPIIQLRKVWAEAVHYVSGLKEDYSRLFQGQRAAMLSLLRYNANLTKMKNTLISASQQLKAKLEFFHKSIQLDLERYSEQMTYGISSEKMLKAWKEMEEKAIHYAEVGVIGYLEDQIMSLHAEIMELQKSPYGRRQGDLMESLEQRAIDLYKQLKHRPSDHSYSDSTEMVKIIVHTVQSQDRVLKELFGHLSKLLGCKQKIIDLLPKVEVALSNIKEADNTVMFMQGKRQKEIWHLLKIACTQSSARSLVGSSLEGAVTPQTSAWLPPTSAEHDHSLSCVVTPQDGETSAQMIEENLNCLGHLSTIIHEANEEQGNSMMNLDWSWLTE
Method: as §1

JAK2 = target: T15, JAK2 (Homo sapiens, UniProt O60674)
T15 construct: T7 phage fusion (most kinases) or DNA tag for qPCR (HEK-293-made kinases); purchased DiscoverX; host or cells: E. coli BL21-derived host (T7 phage) or HEK-293
T15 sequence (O60674 840-1132 limits assumed): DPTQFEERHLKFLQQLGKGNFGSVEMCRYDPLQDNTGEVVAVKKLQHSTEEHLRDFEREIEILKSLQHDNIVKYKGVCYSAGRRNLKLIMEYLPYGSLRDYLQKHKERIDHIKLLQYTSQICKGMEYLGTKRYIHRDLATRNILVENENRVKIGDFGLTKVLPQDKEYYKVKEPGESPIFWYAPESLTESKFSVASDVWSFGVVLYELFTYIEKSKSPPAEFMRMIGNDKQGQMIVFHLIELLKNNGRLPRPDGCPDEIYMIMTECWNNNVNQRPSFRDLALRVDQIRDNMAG
Method: as §1

JNK1 = target: T16, JNK1 (Homo sapiens, UniProt P45983)
T16 construct: T7 phage fusion (most kinases) or DNA tag for qPCR (HEK-293-made kinases); purchased DiscoverX; host or cells: E. coli BL21-derived host (T7 phage) or HEK-293
T16 sequence (P45983 whole entry, the tested form may be a part): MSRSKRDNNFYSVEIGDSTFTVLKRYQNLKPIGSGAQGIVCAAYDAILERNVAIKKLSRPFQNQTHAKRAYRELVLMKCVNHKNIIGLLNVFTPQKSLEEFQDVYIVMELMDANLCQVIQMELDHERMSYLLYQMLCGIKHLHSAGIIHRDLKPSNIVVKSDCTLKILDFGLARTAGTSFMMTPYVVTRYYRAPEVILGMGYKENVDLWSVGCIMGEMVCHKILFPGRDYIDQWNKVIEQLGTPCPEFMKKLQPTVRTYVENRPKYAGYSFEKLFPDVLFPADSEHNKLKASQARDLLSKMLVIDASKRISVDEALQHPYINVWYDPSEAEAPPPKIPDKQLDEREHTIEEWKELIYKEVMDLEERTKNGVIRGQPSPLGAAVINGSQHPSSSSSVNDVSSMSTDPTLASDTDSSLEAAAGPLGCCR
Method: as §1

LCK = target: T17, LCK (Homo sapiens, UniProt P06239)
T17 construct: T7 phage fusion (most kinases) or DNA tag for qPCR (HEK-293-made kinases); purchased DiscoverX; host or cells: E. coli BL21-derived host (T7 phage) or HEK-293
Method: as §1

MARK1 = target: T18, MARK1 (Homo sapiens, UniProt Q9P0L2)
T18 construct: T7 phage fusion (most kinases) or DNA tag for qPCR (HEK-293-made kinases); purchased DiscoverX; host or cells: E. coli BL21-derived host (T7 phage) or HEK-293
Method: as §1

MARK3 = target: T19, MARK3 (Homo sapiens, UniProt P27448)
T19 construct: T7 phage fusion (most kinases) or DNA tag for qPCR (HEK-293-made kinases); purchased DiscoverX; host or cells: E. coli BL21-derived host (T7 phage) or HEK-293
Method: as §1

MEK1 = target: T20, MEK1 (Homo sapiens, UniProt Q02750)
T20 construct: T7 phage fusion (most kinases) or DNA tag for qPCR (kinases made in HEK-293); purchased DiscoverX; host or cells: E. coli BL21-derived host (T7 phage) or HEK-293
Method: as §1

PAK1 = target: T21, PAK1 (Homo sapiens, UniProt Q13153)
T21 construct: T7 phage fusion (most kinases) or DNA tag for qPCR (kinases made in HEK-293); purchased DiscoverX; host or cells: E. coli BL21-derived host (T7 phage) or HEK-293
Method: as §1

PAK2 = target: T22, PAK2 (Homo sapiens, UniProt Q13177)
T22 construct: T7 phage fusion (most kinases) or DNA tag for qPCR (kinases made in HEK-293); purchased DiscoverX; host or cells: E. coli BL21-derived host (T7 phage) or HEK-293
Method: as §1

PIK3CA = target: T23, PIK3CA (Homo sapiens, UniProt P42336)
T23 construct: T7 phage fusion (most kinases) or DNA tag for qPCR (kinases made in HEK-293); purchased DiscoverX; host or cells: E. coli BL21-derived host (T7 phage) or HEK-293
Method: as §1

PRKCE = target: T24, PRKCE (Homo sapiens, UniProt Q02156)
T24 construct: T7 phage fusion (most kinases) or DNA tag for qPCR (kinases made in HEK-293); purchased DiscoverX; host or cells: E. coli BL21-derived host (T7 phage) or HEK-293
Method: as §1

RAF1 = target: T25, RAF1 (Homo sapiens, UniProt P04049)
T25 construct: T7 phage fusion (most kinases) or DNA tag after HEK-293 expression; purchased DiscoverX (Fremont, CA), ScanEDGE; host or cells: T7 phage in E. coli BL21-derived host, or HEK-293
Method: as §1

RIPK2 = target: T26, RIPK2 (Homo sapiens, UniProt O43353)
T26 construct: T7 phage fusion (most kinases) or DNA tag after HEK-293 expression; purchased DiscoverX (Fremont, CA), ScanEDGE; host or cells: T7 phage in E. coli BL21-derived host, or HEK-293
Method: as §1

SRPK3 = target: T27, SRPK3 (Homo sapiens, UniProt Q9UPE1)
T27 construct: T7 phage fusion (most kinases) or DNA tag after HEK-293 expression; purchased DiscoverX (Fremont, CA), ScanEDGE; host or cells: T7 phage in E. coli BL21-derived host, or HEK-293
T27 sequence (Q9UPE1 whole entry, the tested form may be a part): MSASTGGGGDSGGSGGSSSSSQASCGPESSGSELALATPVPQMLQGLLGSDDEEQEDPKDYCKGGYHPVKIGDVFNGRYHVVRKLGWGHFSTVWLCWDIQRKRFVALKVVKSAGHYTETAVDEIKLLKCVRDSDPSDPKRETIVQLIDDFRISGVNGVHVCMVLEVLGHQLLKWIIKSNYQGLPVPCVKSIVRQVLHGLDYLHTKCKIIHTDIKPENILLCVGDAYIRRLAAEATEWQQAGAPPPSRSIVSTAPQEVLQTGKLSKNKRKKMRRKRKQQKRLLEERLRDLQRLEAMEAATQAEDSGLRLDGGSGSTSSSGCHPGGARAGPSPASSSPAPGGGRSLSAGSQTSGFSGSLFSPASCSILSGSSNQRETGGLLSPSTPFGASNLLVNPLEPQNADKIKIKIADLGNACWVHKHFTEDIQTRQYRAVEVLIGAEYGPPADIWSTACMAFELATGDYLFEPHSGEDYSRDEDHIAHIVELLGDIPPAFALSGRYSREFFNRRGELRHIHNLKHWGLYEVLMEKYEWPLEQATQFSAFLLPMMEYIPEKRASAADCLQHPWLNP
Method: as §1

TGFBR1 = target: T28, TGFBR1 (Homo sapiens, UniProt P36897)
T28 construct: T7 phage fusion (most kinases) or DNA tag after HEK-293 expression; purchased DiscoverX (Fremont, CA), ScanEDGE; host or cells: T7 phage in E. coli BL21-derived host, or HEK-293
Method: as §1

TRKA = target: T29, TRKA (Homo sapiens, UniProt P04629)
T29 construct: T7 phage fusion (most kinases) or DNA tag after HEK-293 expression; purchased DiscoverX (Fremont, CA), ScanEDGE; host or cells: T7 phage in E. coli BL21-derived host, or HEK-293
T29 sequence (P04629 33-796): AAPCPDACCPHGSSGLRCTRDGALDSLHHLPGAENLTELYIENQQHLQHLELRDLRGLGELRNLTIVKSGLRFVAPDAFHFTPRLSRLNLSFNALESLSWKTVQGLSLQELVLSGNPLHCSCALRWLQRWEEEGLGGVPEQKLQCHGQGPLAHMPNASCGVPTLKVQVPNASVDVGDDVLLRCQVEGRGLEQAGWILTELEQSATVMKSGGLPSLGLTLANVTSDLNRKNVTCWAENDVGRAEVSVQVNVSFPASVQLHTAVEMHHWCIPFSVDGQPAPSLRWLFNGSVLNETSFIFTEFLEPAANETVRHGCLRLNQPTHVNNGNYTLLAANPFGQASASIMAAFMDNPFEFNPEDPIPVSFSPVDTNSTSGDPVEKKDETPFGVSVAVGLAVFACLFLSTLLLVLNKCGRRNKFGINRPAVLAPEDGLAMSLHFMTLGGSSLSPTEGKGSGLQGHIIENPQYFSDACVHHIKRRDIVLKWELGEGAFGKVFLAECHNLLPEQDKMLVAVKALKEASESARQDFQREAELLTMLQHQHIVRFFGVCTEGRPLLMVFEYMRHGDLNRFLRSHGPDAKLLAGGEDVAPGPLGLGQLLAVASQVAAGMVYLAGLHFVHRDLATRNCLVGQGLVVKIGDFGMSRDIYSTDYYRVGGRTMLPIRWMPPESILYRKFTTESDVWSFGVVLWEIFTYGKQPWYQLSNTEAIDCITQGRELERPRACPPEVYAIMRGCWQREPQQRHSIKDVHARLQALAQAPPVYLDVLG
Method: as §1

TSSK1B = target: T30, TSSK1B (Homo sapiens, UniProt Q9BXA7)
T30 construct: T7 phage fusion (most kinases) or DNA tag after HEK-293 expression; purchased DiscoverX (Fremont, CA), ScanEDGE; host or cells: T7 phage in E. coli BL21-derived host, or HEK-293
T30 sequence (Q9BXA7 whole entry, the tested form may be a part): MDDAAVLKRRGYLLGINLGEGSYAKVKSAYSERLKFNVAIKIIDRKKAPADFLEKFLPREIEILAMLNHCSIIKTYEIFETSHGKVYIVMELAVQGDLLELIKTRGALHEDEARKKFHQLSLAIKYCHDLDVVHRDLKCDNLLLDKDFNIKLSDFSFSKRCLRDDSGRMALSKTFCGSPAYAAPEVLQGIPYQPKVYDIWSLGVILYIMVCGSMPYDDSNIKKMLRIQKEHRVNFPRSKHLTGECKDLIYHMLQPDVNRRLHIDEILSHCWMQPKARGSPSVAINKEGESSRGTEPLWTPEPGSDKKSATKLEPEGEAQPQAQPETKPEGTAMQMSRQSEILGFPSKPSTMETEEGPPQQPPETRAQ
Method: as §1

TYK2 = target: T31, TYK2 (Homo sapiens, UniProt P29597)
T31 construct: T7 phage fusion (most kinases) or DNA tag after HEK-293 expression; purchased DiscoverX (Fremont, CA), ScanEDGE; host or cells: T7 phage in E. coli BL21-derived host, or HEK-293
T31 sequence (P29597 888-1187 limits assumed): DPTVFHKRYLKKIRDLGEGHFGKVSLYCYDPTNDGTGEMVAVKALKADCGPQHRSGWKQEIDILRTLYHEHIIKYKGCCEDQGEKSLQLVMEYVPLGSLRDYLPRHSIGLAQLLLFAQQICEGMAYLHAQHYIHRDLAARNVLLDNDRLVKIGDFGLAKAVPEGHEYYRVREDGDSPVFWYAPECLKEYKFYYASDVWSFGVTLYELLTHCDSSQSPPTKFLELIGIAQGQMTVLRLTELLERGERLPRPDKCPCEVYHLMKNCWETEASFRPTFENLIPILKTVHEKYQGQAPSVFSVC
Method: as §1

p38-beta = target: T32, p38-beta (Homo sapiens, UniProt Q15759)
T32 construct: T7 phage fusion (most kinases) or DNA tag for qPCR (kinases made in HEK-293); purchased DiscoverX; host or cells: E. coli BL21-derived host (T7 phage) or HEK-293
T32 sequence (Q15759 whole entry, the tested form may be a part): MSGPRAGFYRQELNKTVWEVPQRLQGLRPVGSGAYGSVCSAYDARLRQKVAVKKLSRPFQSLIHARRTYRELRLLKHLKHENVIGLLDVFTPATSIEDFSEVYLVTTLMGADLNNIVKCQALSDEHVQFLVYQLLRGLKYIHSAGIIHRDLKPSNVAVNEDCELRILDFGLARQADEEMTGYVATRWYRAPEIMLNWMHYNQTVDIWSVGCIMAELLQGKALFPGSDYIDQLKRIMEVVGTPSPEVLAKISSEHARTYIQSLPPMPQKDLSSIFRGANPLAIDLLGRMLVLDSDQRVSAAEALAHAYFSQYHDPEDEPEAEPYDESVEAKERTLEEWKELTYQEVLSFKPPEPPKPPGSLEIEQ
Method: as §1

- remaining binding at 0.071 µM (ABL1): 0.2%
- remaining binding at 0.071 µM (AXL): 68%
- remaining binding at 0.071 µM (BMPR2): 87%
- remaining binding at 0.071 µM (BTK): 0.45%
- remaining binding at 0.071 µM (CDK3): 80%
- remaining binding at 0.071 µM (EGFR): 5.9%
- remaining binding at 0.071 µM (EPHA2): 7.1%
- remaining binding at 0.071 µM (ERBB2): 3.5%
- remaining binding at 0.071 µM (ERK1): 100%
- remaining binding at 0.071 µM (FGFR3): 24%
- remaining binding at 0.071 µM (FLT3): 20%
- remaining binding at 0.071 µM (GSK3B): 68%
- remaining binding at 0.071 µM (HIPK2): 100%
- remaining binding at 0.071 µM (IKK-alpha): 93%
- remaining binding at 0.071 µM (JAK2): 13%
- remaining binding at 0.071 µM (JNK1): 97%
- remaining binding at 0.071 µM (LCK): 0.75%
- remaining binding at 0.071 µM (MARK1): 84%
- remaining binding at 0.071 µM (MARK3): 40%
- remaining binding at 0.071 µM (MEK1): 20%
- remaining binding at 0.071 µM (PAK1): 6.6%
- remaining binding at 0.071 µM (PAK2): 75%
- remaining binding at 0.071 µM (PIK3CA): 84%
- remaining binding at 0.071 µM (PRKCE): 92%
- remaining binding at 0.071 µM (RAF1): 100%
- remaining binding at 0.071 µM (RIPK2): 16%
- remaining binding at 0.071 µM (SRPK3): 88%
- remaining binding at 0.071 µM (TGFBR1): 90%
- remaining binding at 0.071 µM (TRKA): 74%
- remaining binding at 0.071 µM (TSSK1B): 83%
- remaining binding at 0.071 µM (TYK2): 49%
- remaining binding at 0.071 µM (p38-beta): 47%
SMILES: COc1ccc(N2C(=O)N(c3c(C)cccc3C)Cc3cnc(Nc4ccc(C5CCN(C)CC5)c(OC)c4)nc32)c(OC)c1 [YKL-05-093]
